According to publication PMC11637483, “Dissecting caspase-2-mediated cell death: from intrinsic PIDDosome activation to chemical modulation” (Protein & Cell, 2024):

Tested on: HeLa-CASP2/CASP3/GSDMD TKO + CASP2 cells (human caspase-2)
Experiment: ATP-based cell viability (CellTiter-Glo) in HeLa TKO cells with exogenous caspase-2 expression
Settings: immunoblotting, HUHS015-treated cells
Excerpt: Specific chemical compounds are powerful tools for dissecting target-related signaling mechanisms in biological contexts ([Beck et al., 2022]; [Zhang et al., 2012]). Prompted by this notion and possibly to identify a compound that could activate the PIDDosome, we designed a cell death-based high-throughput chemical screen in HeLa cells, in which a triple knockout of CASP2, CASP3, and GSDMD were constructed. CASP3 and GSDMD deficiency served as the background to minimize compound-induced nonspecific cytotoxicity and undesired pyroptosis. Using the triple knockout cells as the control, additional expression of exogenous caspase-2 allows the identification of compounds that can specifically activate the caspase-2-BID pathway and trigger apoptosis through caspase-7. […] In accordance with the apoptosis induction, HUHS015 induced evident processing of caspase-2 expressed in the triple-knockout cells (Fig. 3B). This indicated activation of caspase-2 as the protease-deficient C320A mutant of caspase-2 was not processed upon HUHS015 treatment (Fig. 3B). Accordingly, expression of caspase-2 C320A rendered no cell death in response to HUHS015 treatment (Fig. 3B).
Figure 3. Chemical screen identifies HUHS015 as an agonist of human caspase-2. (A) Screen raw data and selectivity analyses of the compound plate containing HUHS015. The ATP-based viability data of both HeLa-CASP2^−/−CASP3^−/−GSDMD^−/− (TKO) (control group) and TKO cells with exogenous caspase-2 expression (experimental group) are shown. The ratios of the cell viability between the two groups are calculated with 3 as a cutoff for positive compound hit selection. (B) HUHS015-induced cell death depends on caspase-2 activity. HeLa TKO cells expressing WT or enzymatically deficient C320A mutant of caspase-2 were treated with HUHS015. ATP-based cell viability and immunoblotting of caspase-2 cleavage are shown. (C and F) The structures and potencies of HUHS15 (C) and its optimized derivative HUHS15-036 (F). HeLa TKO cells with exogenous caspase-2 expression were treated with titrated compounds. The ATP-based viability data were plotted with compound concentration for EC50 calculation. (D) BID is required for HUHS15-induced caspase-2-dependent cell death. […] Processing of caspase-2, -3, and -7 was analyzed by immunoblotting. […] ATP-based cell viability in panels (B and D) is expressed as mean ± s.d. from three technical replicates. […]
Cell viability was measured by the ATP assay using the CellTiter-Glo® Luminescent Cell Viability Assay kit (Promega).
Drug-related Screening Library (25 × 384-well plate, more than 7,000 compounds) was used for the chemical screen in the TKO HeLa cells rescued with exogenous caspase-2 expression. […] After treatment for 12 h, the cell viability was measured by the ATP assay. […]

Substance: zVAD [reference compound]
- block of HUHS015-induced caspase-2 processing: not blocked
